Data on 19 compounds can be found in the SangsterLogP compilation.

Test in one data set: not given
Usually logP stands for the decadic logarithm of the partition coefficient of the neutral form, usually between octanol and water. A higher logP goes with a more lipophilic compound. Turning to `Clc1ccc(C(c2ccccc2Cl)C(Cl)(Cl)Cl)cc1` (centres undefined), the logP is 5.53.

The compound `CCSC(=O)N1CCCCCC1` showed a logP of 2.49. The same measure, in the same setting: the figure for `CCSC(=O)N(CC(C)C)CC(C)C` is 3.45; for `Clc1ccc(C(c2ccccc2Cl)C(Cl)Cl)cc1` (centres undefined) it is 5.34. Same read-out and setting: then `CCSC(=O)N(CC)C1CCCCC1`, with 3.25; and `CCCCN(CC)C(=O)SCCC`, with 3.27; and `ClC(Cl)=C(c1ccc(Cl)cc1)c1ccccc1Cl`, with 5.45. Still for that read-out and setting: the figure for `COP(=O)(OC)O/C(=C\Cl)c1cc(Cl)c(Cl)cc1Cl` is 3.87; for `CCCSC(=O)N(CCC)CCC` it is 3.19; for `CCc1cccc(CC)c1N(COC)C(=O)CCl` it is 2.95.

Compound `CCCN(CCC)C(=O)SCC` gave a logP of 2.77. The logP values of the last two compounds are within 0.2 log units of each other. Still for that read-out and setting: then `CCOP(=S)(OCC)Oc1ccc2c(C)c(Cl)c(=O)oc2c1`, with 4.01; and `CCOP(=S)(OCC)SCSC(C)(C)C`, with 3.98.

The next data set is described as follows: method code RP-HPLC, from DOI: 10.1016/s0045-6535(96)00355-4.
The compound `CCNc1nc(N)nc(Cl)n1` had a logP of 1.07. Same read-out and setting: then `CCC(CC)Nc1c([N+](=O)[O-])cc(C)c(C)c1[N+](=O)[O-]`, with 4.78; and `CCNc1nc(NC(C)C)nc(OC)n1`, with 2.29. In the case of `CC(C)N(C(=O)CCl)c1ccccc1`, the logP came out at 2.36.

Take `CCNc1nc(NC(C)(C)C)nc(OC)n1`: the logP amounted to 2.95. Same read-out and setting: the figure for `OC(c1ccc(Cl)cc1)(c1ccc(Cl)cc1)C(Cl)(Cl)Cl` is 4.93.
